For assay [1], the system named is calcium-activated Cl- channel. The experiment in a line: Perforated patch whole cell recording of Cl- current. It counts as cell-based, human. As for the experimental part:
In FIGS. 4A and 4B, the response to 10 μM INO-E2 is contrasted with the response to ATP.

Another assay deals with human CF nasal epithelia. The experiment in a line: Blue Dextran volume transport assay (fluid absorption). It counts as cell-based. The settings on record: for inhibition of fluid absorption, dose response: Blue Dextran Assay, 18 hrs apical exposure. The source says:
In normal human airway epithelia, Na^+ and Cl^− currents (CFTR and Ca^2+-activated Cl^− currents) contribute to airway surface liquid (ASL) fluid volume regulation depending on signaling equilibria. In contrast, in human CF airway epithelia, Na^+ currents through ENaC dominate basal ASL volume regulation accompanied by a relatively minor contribution through Ca^2+-activated Cl^− currents. The combination of enhanced ENaC currents and transient Ca^2+-activated Cl^− currents in CF result in an inadequate hydration of the ASL and reduction of mucociliary clearance. Since INO-E2 reduces Na^+ transport through ENaC, we hypothesized that INO-E2 would have a functional effect, similar to amiloride, and inhibit fluid absorption. To test this hypothesis, we exposed well differentiated monolayer cultures of CF nasal epithelia to an apically applied buffer containing INO-E2 and a known concentration of the non-permeable molecule Blue Dextran (BD). The resulting reduction in the ability of these monolayers to concentrate BD was taken as a functional indicator of INO-E2's involvement in the inhibition of ENaC.
HEPES Modified Ringer's Buffer (HMRB) was used for these assays. HMRB was sterilized by positive pressure filtration through a 0.2 um syringe tip filter (Gelman acrodisc). The BD stock solution was aseptically prepared with sterile buffer (2 mg BD/ml buffer). Compounds to be tested were solubilized in sterile HMRB containing 1 μM BD (final concentration of vehicle is 0.1% (1:1, DMSO+DMSO containing 5% pluronic-F127). […] A standard concentration curve was obtained by determining the optical densities of a serial dilution of 10 μM Blue Dextran in HMRB placed in a Falcon 3027 96-well plate. The optical density of BD in the solution was obtained by analysis at 660 nm in a Packard Spectracount. Standards and samples were analyzed on the same plate. 50 μl volumes were used for all samples and standards. The [BD] of the samples was determined by extrapolation from the standard curve using the Packard I-Smart software. The increase in [BD] from the starting value of 1 μM was taken to be an indication of the magnitude of volume absorption occurring across the monolayer. The rate of absorption was calculated by dividing the change in volume by the duration of the experiment. This value was normalized to a surface area of 1 cm^2, to give μl·cm^2−1·hr^−1. To address evaporative loss, which would appear in the data as artificially high absorptive rates, dummy membranes were constructed by attaching a thin Sylgard sheet to snapwells/transwells with silicon sealant. These dummy membranes were used in parallel with the epithelial monolayers to assess evaporative loss for each experiment.

Consider `Nc1ncnc2c1ncn2[C@@H]1O[C@H](COP(=O)(O)OP(=O)(O)OP(=O)(O)O)[C@@H](O)[C@H]1O` [ATP, adenosine triphosphate, reference compound], for which the “further increase in whole cell chloride current after INO-E2” value in assay [1] (ATP contrasted with 10 μM INO-E2) was “no further increase”.

For the compound `CCCC(=O)OC1C(OP(=O)(OCOC(=O)CC)OCOC(=O)CC)C(OC(=O)CCC)C(OP(=O)(OCOC(=O)CC)OCOC(=O)CC)C(OP(=O)(OCOC(=O)CC)OCOC(=O)CC)C1OP(=O)(OCOC(=O)CC)OCOC(=O)CC` (stereo not shown) [INO-230, 2,6-Di-O-butyryl-myo-inositol 1,3,4,5-tetrakisphosphate octakis(propionoxymethyl) ester], in the assay on human CF nasal epithelia (10 μM, 2 hr exposure, measured 42 hrs after), the “inhibition of fluid absorption 42 hrs after exposure” value is “significantly inhibits”. The “change of potency on fluid absorption with repeat administration” value in the assay on human CF nasal epithelia (2 hours each day for 8 days at 0.1 μM or 1 μM, n=6) is “enhancement of compound potency”. Moreover, in the assay on human CF nasal epithelia, the “inhibition of fluid absorption, dose response” value (from here on “inhibition … dose response”) was “dose dependent inhibition of fluid absorption”. The “relative potency on fluid absorption after pulsed exposure” value with human CF nasal epithelia (INO-230 vs INO-E2) is listed as “more potent than INO-E2”. In the assay with human CF nasal epithelia (pulsed exposure, FIG. 17), the “duration of effect on fluid secretion following a brief (pulsed) exposure” value was “prolonged effects”. Also, the “potency of inhibition of fluid absorption on repeated exposure” value in the assay with human CF nasal epithelia (repeated apical low doses over 96-192 hours, FIG. 17) is “nanomolar range”.

`CCCC(=O)OC1C(OC(=O)CCC)C(OP(=O)(OCOC(=O)CC)OCOC(=O)CC)C(OP(=O)(OCOC(=O)CC)OCOC(=O)CC)C(OC(=O)CCC)C1OP(=O)(OCOC(=O)CC)OCOC(=O)CC` (stereo not shown) [INO-4981, 1,2,5-tri-O-butyryl-myo-inositol 3,4,6-trisphosphate hexakis (propionoxymethyl) ester]: the “inhibition … dose response” value with human CF nasal epithelia was “dose dependent inhibition of fluid absorption”.

With `CCCC(=O)OC1C(OC(=O)CCC)C(OP(=O)(OCOC(=O)CC)OCOC(=O)CC)C(OP(=O)(OCOC(=O)CC)OCOC(=O)CC)C(OC(=O)CCC)C1OP(=O)(OCOC(=O)CC)OCOC(=O)CC` (stereo not shown) [INO-4982, 2,3,5-tri-O-butyryl-myo-inositol 1,4,6-trisphosphate hexakis (propionoxymethyl) ester], in the assay on human CF nasal epithelia, the “inhibition … dose response” value is recorded as “dose dependent inhibition of fluid absorption”.

As to `CCC(=O)OCOP(=O)(OCOC(=O)CC)OC1C2OC3(CC4CCC3(C)C4(C)C)OC2C(OP(=O)(OCOC(=O)CC)OCOC(=O)CC)C(OP(=O)(OCOC(=O)CC)OCOC(=O)CC)C1OP(=O)(OCOC(=O)CC)OCOC(=O)CC` (stereo not shown) [INO-4984, 2,3-camphanylidene-myo-inositol 1,4,5,6-tetrakisphosphate octakis (propionoxymethyl) ester], the “potency on fluid absorption relative to 100 μM amiloride” value with human CF nasal epithelia (100 μM) was “more potent than 100 μM amiloride”. Also, in the assay on human CF nasal epithelia, the “inhibition … dose response” value is “dose dependent inhibition of fluid absorption”.

For the compound `CCCCCCCCOC1C(OC(=O)CCC)C(OP(=O)(OCOC(=O)CC)OCOC(=O)CC)C(OP(=O)(OCOC(=O)CC)OCOC(=O)CC)C(OP(=O)(OCOC(=O)CC)OCOC(=O)CC)C1OP(=O)(OCOC(=O)CC)OCOC(=O)CC` (stereo not shown) [INO-4987, 2-O-butyryl-3-O-octyl-myo-inositol 1,4,5,6-tetrakisphosphate octakis (propionoxymethyl) ester], in the assay with human CF nasal epithelia, the “inhibition … dose response” value is “dose dependent inhibition of fluid absorption”.

On to `CCCC(=O)OC1C(OP(=O)(OCOC(=O)CC)OCOC(=O)CC)C(OC(=O)CCC)C(OP(=O)(OCOC(=O)CC)OCOC(=O)CC)C(OC(=O)CCC)C1OP(=O)(OCOC(=O)CC)OCOC(=O)CC` (stereo not shown) [INO-4992, 2,4,6-tri-O-butyryl-myo-inositol 1,3,5-trisphosphate hexakis (propionoxymethyl) ester], for which the “potency on fluid absorption relative to 100 μM amiloride” value in the assay with human CF nasal epithelia (5 uM) is listed as “nearly as potent as 100 μM amiloride”. The “inhibition … dose response” value in the assay with human CF nasal epithelia is recorded as “dose dependent inhibition of fluid absorption”.

`CCC(=O)OCOP(=O)(OCOC(=O)CC)OC1C2OC3(CC4CCC3(C)C4(C)C)OC2C(OP(=O)(OCOC(=O)CC)OCOC(=O)CC)C(OP(=O)(OCOC(=O)CC)OCOC(=O)CC)C1OP(=O)(OCOC(=O)CC)OCOC(=O)CC` (stereo not shown) [INO-4996, 1,2-camphanylidene-myo-inositol 3,4,5,6-tetrakisphosphate octakis (propionoxymethyl) ester]: in the assay on human CF nasal epithelia, the “inhibition … dose response” value is “dose dependent inhibition of fluid absorption”.

As for `CCCC(=O)OC1C(OCCCc2ccccc2)C(OP(=O)(OCOC(=O)CC)OCOC(=O)CC)C(OP(=O)(OCOC(=O)CC)OCOC(=O)CC)C(OP(=O)(OCOC(=O)CC)OCOC(=O)CC)C1OP(=O)(OCOC(=O)CC)OCOC(=O)CC` (stereo not shown) [INO-4997, 2-O-butyryl-1-O-(3-phenylpropyl)-myo-inositol 3,4,5,6-tetrakis-phosphate octakis (propionoxymethyl) ester], in the assay on human CF nasal epithelia (1 μM), the “activity on fluid absorption as share of activity of 100 μM amiloride” value came to 50%. The “inhibition … dose response” value in the assay with human CF nasal epithelia is listed as “dose dependent inhibition of fluid absorption”.

For `N=C(N)NC(=O)c1nc(Cl)c(N)nc1N` [amiloride, reference compound], the “inhibition … dose response” value in the assay with human CF nasal epithelia was “inhibited fluid absorption measured by the Blue Dextran assay in a dose dependent fashion”.

With `O=C(O)c1cccnc1Nc1cccc(C(F)(F)F)c1` [niflumic acid, reference compound], the “block of INO-E2 mediated whole cell current” value in assay [1] (100 μM) is “completely blocked”.

The record behind these values is patent US20050020542A1, “Method of modulating sodium ion absorption in epithelial cells” (priority 2001, published 2005).
